Active and inactive are the calls of the source. The calls are words filed in the database; no cut-off is given here.
Legend:
[1] = target: ATP-dependent translocase ABCB1 (Homo sapiens, UniProt P08183); experiment: Inhibition of human MDR1 expressed in MDCK cells assessed as fluorescence activity at 30 uM after 1.5 hrs by rhodamine 123 efflux test; type: cell-based
[2] = target: T1, 5-hydroxytryptamine receptor 1A (Homo sapiens, UniProt P08908); experiment: Displacement of [3H]8-OH-DPAT from 5HT1A receptor expressed in HEK293 cells after 2 hrs by liquid scintillation counting; type: cell-based
T1 sequence (P08908 whole entry): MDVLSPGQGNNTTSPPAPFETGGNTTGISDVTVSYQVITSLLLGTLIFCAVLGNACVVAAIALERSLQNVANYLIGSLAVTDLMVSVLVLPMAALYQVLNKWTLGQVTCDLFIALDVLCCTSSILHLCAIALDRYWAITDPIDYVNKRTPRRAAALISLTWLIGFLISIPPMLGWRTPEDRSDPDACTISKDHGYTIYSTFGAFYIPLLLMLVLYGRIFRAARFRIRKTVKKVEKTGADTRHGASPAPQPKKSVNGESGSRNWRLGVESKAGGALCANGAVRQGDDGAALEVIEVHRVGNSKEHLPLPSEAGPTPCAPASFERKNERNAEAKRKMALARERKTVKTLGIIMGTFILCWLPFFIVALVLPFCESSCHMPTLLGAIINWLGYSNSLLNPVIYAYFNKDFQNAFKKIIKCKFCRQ

[3] = target: T2, 5-hydroxytryptamine receptor 1A (Homo sapiens) (UniProt P08908); experiment: Displacement of [3H]8-OH-DPAT from 5HT1A receptor expressed in HEK293 cells at 25 ug/ml after 2 hrs by liquid scintillation counting; type: cell-based
T2 sequence (whole entry): T1 sequence (P08908 whole entry)

[4] = target: T2, 5-hydroxytryptamine receptor 1A (Homo sapiens); experiment: Agonist activity at 5HT1A receptor expressed in HEK293 cells by [S35]GTPgammaS binding assay relative to 8-OH-DPAT; type: functional, cell-based; parameters: concentration or dose not given beside the values
[5] = target: T2, 5-hydroxytryptamine receptor 1A (Homo sapiens); experiment: Agonist activity at 5HT1A receptor expressed in HEK293 cells at >20 uM by [S35]GTPgammaS binding assay relative to 8-OH-DPAT; type: functional, cell-based
[6] = target: T2, 5-hydroxytryptamine receptor 1A (Homo sapiens); experiment: Antagonist activity at 5HT1A receptor expressed in HEK293 cells assessed as inhibition of 8-OH-DPAT-induced [S35]GTPgammaS binding by scintillation counting; type: functional, cell-based
[7] = target: T2, 5-hydroxytryptamine receptor 1A (Homo sapiens); experiment: Antagonist activity at 5HT1A receptor expressed in HEK293 cells assessed as inhibition of serotonin-induced [S35]GTPgammaS binding by scintillation counting; type: functional, cell-based
[8] = system: Caco-2; experiment: Cytotoxicity against human Caco-2 cells at 50 ug/ml; type: cell-based
[9] = system: Caco-2; experiment: Permeability in human Caco-2 cells assessed as passive diffusion after 3 hrs by HPLC; type: ADME, cell-based; conditions: caco-2, 3 h

Chain of ATP-dependent translocase ABCB1 (P08183 whole entry): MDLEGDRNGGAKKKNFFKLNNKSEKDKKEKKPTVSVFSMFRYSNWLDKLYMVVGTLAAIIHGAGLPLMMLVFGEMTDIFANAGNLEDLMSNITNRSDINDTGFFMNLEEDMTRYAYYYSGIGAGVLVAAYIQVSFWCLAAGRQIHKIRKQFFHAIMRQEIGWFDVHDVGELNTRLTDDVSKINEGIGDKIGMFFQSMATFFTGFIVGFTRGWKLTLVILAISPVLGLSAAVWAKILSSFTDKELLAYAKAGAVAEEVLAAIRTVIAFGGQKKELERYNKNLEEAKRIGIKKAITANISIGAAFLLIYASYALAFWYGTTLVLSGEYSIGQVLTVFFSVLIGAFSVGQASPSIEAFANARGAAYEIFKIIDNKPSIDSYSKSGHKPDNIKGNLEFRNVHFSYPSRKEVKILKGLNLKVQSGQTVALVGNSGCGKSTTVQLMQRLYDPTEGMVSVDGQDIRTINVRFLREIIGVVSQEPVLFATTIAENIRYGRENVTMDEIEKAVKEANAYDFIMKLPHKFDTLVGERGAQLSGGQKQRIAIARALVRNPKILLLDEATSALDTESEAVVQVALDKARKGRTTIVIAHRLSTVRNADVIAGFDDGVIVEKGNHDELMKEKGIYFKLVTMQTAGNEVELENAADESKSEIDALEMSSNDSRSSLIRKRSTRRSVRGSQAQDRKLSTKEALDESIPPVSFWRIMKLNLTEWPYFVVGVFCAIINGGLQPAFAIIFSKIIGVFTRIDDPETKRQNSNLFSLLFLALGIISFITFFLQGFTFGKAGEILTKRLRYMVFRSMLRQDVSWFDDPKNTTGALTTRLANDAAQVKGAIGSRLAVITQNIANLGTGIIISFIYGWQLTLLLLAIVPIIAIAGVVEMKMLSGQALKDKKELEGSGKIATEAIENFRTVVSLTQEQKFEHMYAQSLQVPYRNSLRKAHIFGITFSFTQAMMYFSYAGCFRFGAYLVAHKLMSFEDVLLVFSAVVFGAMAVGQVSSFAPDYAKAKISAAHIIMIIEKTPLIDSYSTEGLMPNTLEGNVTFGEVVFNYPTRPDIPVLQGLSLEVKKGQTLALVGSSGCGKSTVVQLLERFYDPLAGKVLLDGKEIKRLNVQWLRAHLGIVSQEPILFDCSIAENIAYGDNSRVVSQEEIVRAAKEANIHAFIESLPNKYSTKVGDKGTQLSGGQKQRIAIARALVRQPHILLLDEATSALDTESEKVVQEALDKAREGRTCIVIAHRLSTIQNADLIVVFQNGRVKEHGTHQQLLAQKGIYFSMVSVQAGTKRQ

| Structure (SMILES) | inhibition (INH) [1] | Ki [2] [µM] | Activity [3] [%] | Activity [4] [%] | Activity [5] | Activity [6] | Activity [7] | Activity [8] | permeability [9] [%] |
| --- | --- | --- | --- | --- | --- | --- | --- | --- | --- |
| CC[C@]1(O)C[C@@H]2CN(CCc3c([nH]c4ccccc34)[C@@](C(=O)OC)(c3cc4c(cc3OC)N(C)[C@H]3[C@@](O)(C(=O)OC)[C@H](OC(C)=O)[C@]5(CC)C=CCN6CC[C@]43[C@@H]65)C2)C1 [VINBLASTINE] | Active | – | – | – | – | – | – | – | – |
| CCCCCC(=O)/C=C(O)/C=C/c1ccc(O)c(OC)c1 | Not Active | 6.53 | > 50 | > 20 | inactive | inactive | inactive | – | – |
| CCCCCCCC(O)CCc1ccc(O)c(OC)c1 (configuration not stated) | – | 9.53 | – | > 10 | – | – | – | – | – |
| CCCCCCCCC/C(O)=C/C(=O)/C=C/c1ccc(O)c(OC)c1 | Not Active | 3.59 | > 50 | – | – | inactive | inactive | – | – |
| CCCCCCC/C(O)=C/C(=O)/C=C/c1ccc(O)c(OC)c1 | Not Active | 6.54 | > 50 | – | – | inactive | inactive | – | – |
| CCCCC[C@H](O)CC(=O)CCc1ccc(O)c(OC)c1 [GINGEROL] | Not Active | > 100 | > 50 | – | – | inactive | inactive | Non-toxic | 10 |
| CCCCCCC/C=C/C(=O)CCc1ccc(O)c(OC)c1 | Not Active | 13 | > 50 | – | – | inactive | inactive | – | – |
| NCCc1c[nH]c2ccc(O)cc12 | – | – | – | 100 | – | – | – | – | – |
| CCCCCCCCC/C=C/C(=O)CCc1ccc(O)c(OC)c1 | Not Active | 5.84 | > 50 | > 20 | inactive | inactive | inactive | Non-toxic | 10 |
| CCCCCCC[C@H](O)CC(=O)CCc1ccc(O)c(OC)c1 | Not Active | 11.7 | > 50 | – | – | inactive | inactive | Non-toxic | 10 |
| CCCCCCCCC[C@H](O)CC(=O)CCc1ccc(O)c(OC)c1 | Not Active | 3.74 | > 50 | > 10 | – | inactive | inactive | Non-toxic | 10 |
| CCCCC/C=C/C(=O)CCc1ccc(O)c(OC)c1 [SHOGAOL] | Not Active | 18 | > 50 | – | – | inactive | inactive | – | – |

Source: ChEMBL document CHEMBL1157931 (Bioorg Med Chem, 2010)
